What is called inhibition is the drop in the measured response relative to a control, in per cent.

SMILES strings stand for the structures.

What all share (experiment): biochemical
What all share (parameters): KINOMEscan competition binding panel (Eurofins DiscoverX), single concentration, % inhibition
Conditions in all cases: read-out: 7 at 1 µM % inhibition

For test [1], the target named is T1, ABL1(Y253F)-phosphorylated (Homo sapiens, UniProt P00519, Y253F).
T1 construct: phosphorylated
In a few lines:
(§1)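 Kinome-wide profiling (KINOMEscan, >400 human kinases) was run at 1 µM compound.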

In a further test the target is ALK(L1196M) (Homo sapiens, UniProt Q9UM73, L1196M). In short, it runs like this: as §1
The target in a further test is AURKC (Homo sapiens, UniProt Q9UQB9). In short, it runs like this:
as §1

The next test has as its target T2, DMPK2 (Homo sapiens, UniProt Q6DT37).
T2 construct: gene CDC42BPG
In a few lines:
as §1

The target of the next test is DYRK1B (Homo sapiens, UniProt Q9Y463). In a few lines: as §1
For another test, the target named is EPHA1 (Homo sapiens, UniProt P21709). In short, it runs like this:
as §1

For a further test, the target named is EPHA5 (Homo sapiens, UniProt P54756). In short, it runs like this: as §1
Sequence of EPHA5 (P54756 whole entry): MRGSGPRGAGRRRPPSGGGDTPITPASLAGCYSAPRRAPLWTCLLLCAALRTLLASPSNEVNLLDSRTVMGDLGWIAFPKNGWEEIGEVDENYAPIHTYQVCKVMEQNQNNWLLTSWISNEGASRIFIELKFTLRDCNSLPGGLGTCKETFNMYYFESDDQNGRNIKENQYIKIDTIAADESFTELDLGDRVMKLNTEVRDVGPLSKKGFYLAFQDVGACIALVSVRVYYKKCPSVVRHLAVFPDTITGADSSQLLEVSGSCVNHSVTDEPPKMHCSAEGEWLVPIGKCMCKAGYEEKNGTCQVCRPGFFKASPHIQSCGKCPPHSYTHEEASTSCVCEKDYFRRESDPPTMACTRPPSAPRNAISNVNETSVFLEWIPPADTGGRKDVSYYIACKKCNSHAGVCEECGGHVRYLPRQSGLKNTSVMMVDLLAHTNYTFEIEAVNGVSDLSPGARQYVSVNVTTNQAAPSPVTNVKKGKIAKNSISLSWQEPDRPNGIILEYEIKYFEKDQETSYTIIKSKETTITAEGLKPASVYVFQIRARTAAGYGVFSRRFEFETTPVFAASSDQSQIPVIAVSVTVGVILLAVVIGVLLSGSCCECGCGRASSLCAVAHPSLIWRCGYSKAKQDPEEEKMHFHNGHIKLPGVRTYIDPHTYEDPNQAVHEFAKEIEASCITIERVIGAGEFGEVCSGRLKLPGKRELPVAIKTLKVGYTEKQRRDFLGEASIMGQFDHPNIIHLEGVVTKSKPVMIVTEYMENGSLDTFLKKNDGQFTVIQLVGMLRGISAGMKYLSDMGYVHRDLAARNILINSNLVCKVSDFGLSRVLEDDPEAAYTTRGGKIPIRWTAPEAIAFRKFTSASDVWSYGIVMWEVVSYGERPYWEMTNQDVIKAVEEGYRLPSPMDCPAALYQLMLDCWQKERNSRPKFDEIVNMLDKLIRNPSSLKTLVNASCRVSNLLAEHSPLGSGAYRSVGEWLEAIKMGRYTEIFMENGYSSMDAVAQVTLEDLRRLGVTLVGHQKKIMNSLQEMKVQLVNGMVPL
The target of the next test is T3, ERK1 (Homo sapiens, UniProt P27361).
T3 construct: gene MAPK3
In a few lines:
as §1

A further test concerns the target T4, ERK5 (Homo sapiens, UniProt Q13164).
T4 construct: gene MAPK7
In a few lines:
as §1

A further test addresses FRK (Homo sapiens, UniProt P42685). In short, it runs like this: as §1
For the next test, the target named is T5, IKK-beta (Homo sapiens, UniProt O14920).
T5 construct: gene IKBKB
T5 sequence (O14920 whole entry): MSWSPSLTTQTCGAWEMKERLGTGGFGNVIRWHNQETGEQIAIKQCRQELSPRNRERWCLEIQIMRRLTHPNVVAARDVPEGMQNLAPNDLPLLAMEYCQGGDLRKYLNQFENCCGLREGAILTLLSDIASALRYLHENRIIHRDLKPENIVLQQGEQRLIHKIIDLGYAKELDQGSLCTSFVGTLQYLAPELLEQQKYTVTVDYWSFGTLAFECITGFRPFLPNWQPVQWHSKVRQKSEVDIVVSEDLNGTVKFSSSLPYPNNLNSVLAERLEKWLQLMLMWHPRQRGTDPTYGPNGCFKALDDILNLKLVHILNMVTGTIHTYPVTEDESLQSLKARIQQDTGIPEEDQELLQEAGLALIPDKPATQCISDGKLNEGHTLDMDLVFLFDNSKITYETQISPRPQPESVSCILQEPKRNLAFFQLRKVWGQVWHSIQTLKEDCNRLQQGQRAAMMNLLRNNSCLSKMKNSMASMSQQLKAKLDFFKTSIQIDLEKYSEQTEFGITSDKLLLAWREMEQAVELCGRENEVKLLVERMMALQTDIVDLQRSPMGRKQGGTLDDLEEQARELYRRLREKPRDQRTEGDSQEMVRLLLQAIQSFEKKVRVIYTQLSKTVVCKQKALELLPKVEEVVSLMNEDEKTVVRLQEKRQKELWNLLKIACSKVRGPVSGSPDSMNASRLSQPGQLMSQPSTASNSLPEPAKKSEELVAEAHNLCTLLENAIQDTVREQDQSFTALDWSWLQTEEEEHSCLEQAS
In a few lines: as §1

Another test addresses IRAK4 (Homo sapiens, UniProt Q9NWZ3). In short, it runs like this: as §1
The next test concerns the target KIT(A829P) (Homo sapiens, UniProt P10721, A829P). In a few lines:
as §1

The next test deals with LATS2 (Homo sapiens, UniProt Q9NRM7). In short, it runs like this: as §1
In the next test the target is MAPKAPK5 (Homo sapiens, UniProt Q8IW41). In a few lines: as §1
Another test has as its target T6, MRCKB (Homo sapiens, UniProt Q9Y5S2).
T6 construct: gene CDC42BPB
In a few lines:
as §1

A further test concerns the target PDPK1 (Homo sapiens, UniProt O15530). In short, it runs like this:
as §1

The target in a further test is RAF1 (Homo sapiens, UniProt P04049). In short, it runs like this:
as §1

Test [2] has as its target T7, RPS6KA4(Kin.Dom.1-N-terminal) (Homo sapiens, UniProt O75676).
T7 construct: Kin.Dom.1-N-terminal
In short, it runs like this: as §1

Another test has as its target SGK3 (Homo sapiens, UniProt Q96BR1). In short, it runs like this: as §1
The target of a further test is TNK1 (Homo sapiens, UniProt Q13470). In short, it runs like this:
as §1

The next test has as its target T8, TRKA (Homo sapiens, UniProt P04629).
T8 construct: gene NTRK1
In a few lines:
as §1

The target in a further test is WEE2 (Homo sapiens, UniProt P0C1S8). In a few lines: as §1
For another test, the target named is T9, YANK1 (Homo sapiens, UniProt Q8WU08).
T9 construct: gene STK32A
In short, it runs like this: as §1

T6 sequence (Q9Y5S2 whole entry): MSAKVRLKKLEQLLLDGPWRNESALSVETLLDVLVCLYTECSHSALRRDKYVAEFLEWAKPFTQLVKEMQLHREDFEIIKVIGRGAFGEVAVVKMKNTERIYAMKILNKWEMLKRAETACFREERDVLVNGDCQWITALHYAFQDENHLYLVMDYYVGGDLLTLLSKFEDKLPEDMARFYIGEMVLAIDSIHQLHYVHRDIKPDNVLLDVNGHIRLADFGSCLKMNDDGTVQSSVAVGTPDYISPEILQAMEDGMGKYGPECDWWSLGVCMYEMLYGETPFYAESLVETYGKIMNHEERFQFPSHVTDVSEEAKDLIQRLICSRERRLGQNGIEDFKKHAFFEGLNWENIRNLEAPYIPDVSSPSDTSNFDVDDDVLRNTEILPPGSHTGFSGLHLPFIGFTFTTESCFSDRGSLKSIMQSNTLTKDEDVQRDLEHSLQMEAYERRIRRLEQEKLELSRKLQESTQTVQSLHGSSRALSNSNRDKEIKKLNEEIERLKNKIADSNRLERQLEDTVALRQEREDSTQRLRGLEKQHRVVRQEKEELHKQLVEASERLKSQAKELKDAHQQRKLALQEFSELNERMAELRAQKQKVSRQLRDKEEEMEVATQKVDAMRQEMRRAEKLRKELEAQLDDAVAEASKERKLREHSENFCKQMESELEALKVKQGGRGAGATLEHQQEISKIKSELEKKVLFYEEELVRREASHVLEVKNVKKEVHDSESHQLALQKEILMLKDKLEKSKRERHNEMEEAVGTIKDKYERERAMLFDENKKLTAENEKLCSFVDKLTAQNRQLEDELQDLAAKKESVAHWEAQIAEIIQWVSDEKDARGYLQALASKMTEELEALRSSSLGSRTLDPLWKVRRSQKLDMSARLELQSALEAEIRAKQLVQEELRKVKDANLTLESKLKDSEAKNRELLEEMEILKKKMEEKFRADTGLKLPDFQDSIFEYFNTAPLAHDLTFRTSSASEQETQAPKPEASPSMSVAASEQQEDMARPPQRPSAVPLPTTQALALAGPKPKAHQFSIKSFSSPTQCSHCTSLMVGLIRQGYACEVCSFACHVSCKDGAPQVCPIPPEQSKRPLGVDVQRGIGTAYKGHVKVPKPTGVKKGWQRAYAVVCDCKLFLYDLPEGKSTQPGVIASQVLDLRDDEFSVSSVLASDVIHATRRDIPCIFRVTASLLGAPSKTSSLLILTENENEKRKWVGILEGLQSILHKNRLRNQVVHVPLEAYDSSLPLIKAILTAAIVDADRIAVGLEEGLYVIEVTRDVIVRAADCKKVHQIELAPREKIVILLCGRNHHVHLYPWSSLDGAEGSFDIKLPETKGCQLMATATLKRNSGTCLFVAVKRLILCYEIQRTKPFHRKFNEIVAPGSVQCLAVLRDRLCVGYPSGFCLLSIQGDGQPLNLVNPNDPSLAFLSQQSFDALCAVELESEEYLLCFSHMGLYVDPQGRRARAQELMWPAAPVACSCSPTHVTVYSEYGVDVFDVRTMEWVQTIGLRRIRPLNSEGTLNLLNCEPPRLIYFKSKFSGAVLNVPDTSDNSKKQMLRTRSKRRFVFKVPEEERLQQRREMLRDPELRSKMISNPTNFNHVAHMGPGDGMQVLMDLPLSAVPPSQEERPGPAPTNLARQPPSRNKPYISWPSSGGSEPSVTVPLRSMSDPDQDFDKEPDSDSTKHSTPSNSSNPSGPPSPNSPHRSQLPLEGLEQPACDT
Sequence of IRAK4 (Q9NWZ3 whole entry): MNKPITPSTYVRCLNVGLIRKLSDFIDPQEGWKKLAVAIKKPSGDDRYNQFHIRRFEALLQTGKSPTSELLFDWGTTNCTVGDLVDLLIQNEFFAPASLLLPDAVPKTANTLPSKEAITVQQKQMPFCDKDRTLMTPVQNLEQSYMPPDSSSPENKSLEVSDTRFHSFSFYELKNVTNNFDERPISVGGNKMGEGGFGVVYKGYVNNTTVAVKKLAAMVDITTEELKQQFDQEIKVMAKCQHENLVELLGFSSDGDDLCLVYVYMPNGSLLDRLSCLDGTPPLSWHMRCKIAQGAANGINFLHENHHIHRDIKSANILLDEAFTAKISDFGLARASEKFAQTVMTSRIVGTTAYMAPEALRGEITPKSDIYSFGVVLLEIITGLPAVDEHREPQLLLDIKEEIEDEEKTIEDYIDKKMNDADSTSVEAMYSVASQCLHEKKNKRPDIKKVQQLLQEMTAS
Sequence of KIT(A829P) (P10721 whole entry A829P): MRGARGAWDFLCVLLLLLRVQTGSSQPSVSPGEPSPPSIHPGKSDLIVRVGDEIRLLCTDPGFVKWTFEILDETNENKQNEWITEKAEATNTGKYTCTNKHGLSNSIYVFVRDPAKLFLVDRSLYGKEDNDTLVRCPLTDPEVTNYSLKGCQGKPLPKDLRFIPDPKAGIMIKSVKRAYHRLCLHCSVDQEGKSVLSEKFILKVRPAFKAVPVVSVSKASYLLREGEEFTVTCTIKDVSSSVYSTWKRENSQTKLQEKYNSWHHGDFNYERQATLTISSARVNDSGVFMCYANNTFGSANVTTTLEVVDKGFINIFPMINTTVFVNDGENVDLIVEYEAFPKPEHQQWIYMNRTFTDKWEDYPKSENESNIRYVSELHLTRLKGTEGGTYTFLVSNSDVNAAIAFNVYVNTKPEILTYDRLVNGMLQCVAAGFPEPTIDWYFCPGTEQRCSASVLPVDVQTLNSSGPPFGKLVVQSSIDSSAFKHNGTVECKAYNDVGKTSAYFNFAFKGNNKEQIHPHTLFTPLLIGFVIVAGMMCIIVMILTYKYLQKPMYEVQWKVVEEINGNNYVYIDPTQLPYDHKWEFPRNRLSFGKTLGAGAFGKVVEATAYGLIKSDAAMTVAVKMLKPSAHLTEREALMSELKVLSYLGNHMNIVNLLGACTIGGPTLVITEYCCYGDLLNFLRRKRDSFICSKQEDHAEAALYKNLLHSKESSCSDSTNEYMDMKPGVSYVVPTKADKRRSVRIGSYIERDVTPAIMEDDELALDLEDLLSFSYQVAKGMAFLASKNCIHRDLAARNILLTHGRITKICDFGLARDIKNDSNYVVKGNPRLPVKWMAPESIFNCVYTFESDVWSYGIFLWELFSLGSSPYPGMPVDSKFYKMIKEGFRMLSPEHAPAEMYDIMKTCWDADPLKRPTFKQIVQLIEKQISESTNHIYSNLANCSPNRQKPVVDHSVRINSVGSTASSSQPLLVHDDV

As for `CNS(=O)(=O)c1ccc(N(C)C)c(Nc2ncnc3cc(OC)c(OC)cc23)c1` [compound 7, 3-((6,7-dimethoxyquinazolin-4-yl)amino)-4-(dimethylamino)-N-methylbenzenesulfonamide], the inhibition at 1 µM in [1] was determined as 38%; on ALK(L1196M), 5%; at AURKC, 0%; at DMPK2 it was 0%; on DYRK1B, 0%; on EPHA1 it was 0%. The inhibition at 1 µM at EPHA5 was determined as 0%; on ERK1, 0%; at ERK5 it was 6%; on FRK it was 0%; on IKK-beta it was 68%; on IRAK4, 56%. Besides, the inhibition at 1 µM at KIT(A829P) amounted to 61%; on LATS2, 0%; at MAPKAPK5 it was 27%; at MRCKB, 0%; at PDPK1 it was 0%; on RAF1, 23%. In addition, the inhibition at 1 µM in [2] is 4%; at SGK3, 1%; on TNK1, 37%; at TRKA it was 22%; on WEE2, 0%; at YANK1 it was 17%.

These data come from publication PMC7180948, “New Insights into 4-Anilinoquinazolines as Inhibitors of Cardiac Troponin I–Interacting Kinase (TNNi3K)” (Molecules, 2020).
